From ChEMBL document CHEMBL1201862, “PubChem BioAssay data set” (2004)
The source made the active and inactive calls.

Key:
Genome polyprotein = Genome polyprotein (dengue virus type 2, UniProt P29990); experiment: flavivirus cap methylation enzyme inhibition – biochemical, confirmation dose response, primary screen (AID 588689); assay type: functional
INS1 = experiment: INS-1E survival protection against cytokine death – cell-based, luminescence, retest, dose response (AID 449756); assay type: functional; conditions: Rattus norvegicus;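 also: cell death triggered by IL-1 beta plus TNF-alpha plus IFN-gamma mixture; protective hits raise ATP signal compared with cytokine alone wells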
[1] = NIH3T3 cell viability loss – ATP luminescence, mouse fibroblasts, counter-screen, dose response (AID 2010); assay type: functional, cell-based;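 also: cells exposed to compound for about 90 hours before reading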
Vero [2] = experiment: viability of Vero cells under compound – cytotoxicity control for flavivirus capping enzyme inhibitors (AID 588742); assay type: functional; conditions: Chlorocebus sabaeus
Large T antigen = Large T antigen (Simian virus 40, UniProt P03070); assay type: functional, Betapolyomavirus macacae;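 also: Confirmatory-stage PubChem screen for compounds that inhibit SV40 T antigen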
Chain of Large T antigen (P03070 whole entry): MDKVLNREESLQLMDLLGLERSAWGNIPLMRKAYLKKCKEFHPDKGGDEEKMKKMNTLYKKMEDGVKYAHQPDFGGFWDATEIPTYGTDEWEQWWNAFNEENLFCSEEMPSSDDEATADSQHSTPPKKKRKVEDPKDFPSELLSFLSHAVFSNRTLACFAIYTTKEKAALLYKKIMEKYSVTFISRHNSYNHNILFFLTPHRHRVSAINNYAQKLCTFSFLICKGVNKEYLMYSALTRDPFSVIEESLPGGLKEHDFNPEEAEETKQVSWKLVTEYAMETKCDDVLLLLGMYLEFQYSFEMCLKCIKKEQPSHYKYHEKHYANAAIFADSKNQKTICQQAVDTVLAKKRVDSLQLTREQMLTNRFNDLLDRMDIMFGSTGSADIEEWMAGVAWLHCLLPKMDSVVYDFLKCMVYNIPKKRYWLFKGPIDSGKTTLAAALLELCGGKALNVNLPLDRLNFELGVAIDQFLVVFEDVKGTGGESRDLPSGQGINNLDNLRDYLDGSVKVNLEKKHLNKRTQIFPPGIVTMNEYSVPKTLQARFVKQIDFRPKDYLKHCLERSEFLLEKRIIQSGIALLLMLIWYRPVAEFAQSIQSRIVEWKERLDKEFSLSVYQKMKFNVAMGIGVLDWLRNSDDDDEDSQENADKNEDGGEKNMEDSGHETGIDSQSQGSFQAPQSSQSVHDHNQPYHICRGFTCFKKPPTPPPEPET

[3] = Trypanosoma cruzi growth suppression in host cells – NIH3T3 host cells, beta-gal luminescence, confirmation (AID 2044); assay type: functional, cell-based;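 also: intracellular parasites grown in NIH/3T3 mouse fibroblasts as host cells; luminescent beta-galactosidase reporter signal from transgenic T. cruzi replicating inside host cells; inhibitors lower the luminescence signal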
[4] = biological target: T1, Hepatocyte nuclear factor 4-alpha (Homo sapiens, UniProt P41235); assay type: functional, cell-based;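 also: biochemical luminescence-based dose-response counterscreen measuring inhibition of HNF4 dimerization, run alongside a screen for blockers of ABHD5–perilipin-5 interaction; split luciferase complementation of HNF4 fusion proteins in cell lysate measuring dimerization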
T1 sequence (P41235 whole entry): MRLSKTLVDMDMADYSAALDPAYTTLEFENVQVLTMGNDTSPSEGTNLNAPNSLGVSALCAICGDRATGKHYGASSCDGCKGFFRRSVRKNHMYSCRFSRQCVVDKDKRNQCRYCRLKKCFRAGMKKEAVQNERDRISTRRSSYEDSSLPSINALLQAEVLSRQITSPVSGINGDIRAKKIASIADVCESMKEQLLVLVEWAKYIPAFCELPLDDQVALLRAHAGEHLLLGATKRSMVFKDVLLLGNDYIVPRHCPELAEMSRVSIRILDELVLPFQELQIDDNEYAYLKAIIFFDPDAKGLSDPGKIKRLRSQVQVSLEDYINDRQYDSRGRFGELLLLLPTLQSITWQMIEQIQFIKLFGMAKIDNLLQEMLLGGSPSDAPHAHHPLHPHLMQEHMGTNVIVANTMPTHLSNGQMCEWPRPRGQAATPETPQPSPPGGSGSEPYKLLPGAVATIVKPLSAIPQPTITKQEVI

[5] = biological target: T2, Short transient receptor potential channel 4 (Mus musculus, UniProt Q9QUQ5); experiment: block of DAMGO-driven TRPC4 calcium entry – cell-based, HEK293 TRPC4/mu-opioid, Fluo-4 calcium, dose response (AID 434942); assay type: functional;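 also: potency of inhibitors blocking the TRPC4 calcium response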
T2 sequence (Q9QUQ5 whole entry): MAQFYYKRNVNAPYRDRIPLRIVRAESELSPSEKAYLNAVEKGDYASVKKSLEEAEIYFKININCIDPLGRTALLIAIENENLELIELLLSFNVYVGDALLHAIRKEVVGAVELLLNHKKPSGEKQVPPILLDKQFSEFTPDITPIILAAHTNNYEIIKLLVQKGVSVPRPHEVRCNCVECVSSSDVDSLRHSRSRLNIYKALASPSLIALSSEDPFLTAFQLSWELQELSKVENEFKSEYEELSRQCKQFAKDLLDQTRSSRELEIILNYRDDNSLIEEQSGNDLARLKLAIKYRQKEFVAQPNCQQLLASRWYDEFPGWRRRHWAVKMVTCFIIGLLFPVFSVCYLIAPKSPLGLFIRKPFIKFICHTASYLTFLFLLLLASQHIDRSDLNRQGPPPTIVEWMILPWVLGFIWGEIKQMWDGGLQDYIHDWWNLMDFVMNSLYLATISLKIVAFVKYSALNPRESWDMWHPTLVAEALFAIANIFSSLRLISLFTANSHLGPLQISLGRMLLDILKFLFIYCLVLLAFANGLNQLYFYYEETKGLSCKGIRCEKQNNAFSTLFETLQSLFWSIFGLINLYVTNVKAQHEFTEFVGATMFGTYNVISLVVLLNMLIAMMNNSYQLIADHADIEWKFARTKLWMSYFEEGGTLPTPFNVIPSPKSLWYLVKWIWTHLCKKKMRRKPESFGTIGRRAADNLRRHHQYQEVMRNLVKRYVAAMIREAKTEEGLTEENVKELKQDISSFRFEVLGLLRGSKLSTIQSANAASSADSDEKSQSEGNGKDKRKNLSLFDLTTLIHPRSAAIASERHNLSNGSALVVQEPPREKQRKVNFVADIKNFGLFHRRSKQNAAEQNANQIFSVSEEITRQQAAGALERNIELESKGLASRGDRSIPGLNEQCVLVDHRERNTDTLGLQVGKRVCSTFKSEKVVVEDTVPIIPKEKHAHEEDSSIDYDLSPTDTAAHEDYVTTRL

[6] = reduced cellular PGC1a acetyl-lysine signal – cell-based, cherry-picked samples, dose response (AID 720514); assay type: functional;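 also: potency may reflect raised or lowered acetylation signal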
[7] = viability loss in THP-1 monocytes – THP-1 cells, cytotoxicity control for Vif-APOBEC3G degradation inhibitor project, dose response (AID 1117359); assay type: functional; conditions: THP-1
[8] = biological target: T3, Orexin/Hypocretin receptor type 1 (Homo sapiens, UniProt O43613); experiment: (§1) Fluorescence-based cell-based high throughput dose response assay for antagonists of the orexin 1 receptor (OX1R; HCRTR1). [Related pubchem assays (depositor defined):AID434989, AID435008, AID463079, AID485270, AID492963, AID492964, AID492965, AID493232, AID504717, AID504718]; assay type: functional
T3 sequence (O43613 whole entry): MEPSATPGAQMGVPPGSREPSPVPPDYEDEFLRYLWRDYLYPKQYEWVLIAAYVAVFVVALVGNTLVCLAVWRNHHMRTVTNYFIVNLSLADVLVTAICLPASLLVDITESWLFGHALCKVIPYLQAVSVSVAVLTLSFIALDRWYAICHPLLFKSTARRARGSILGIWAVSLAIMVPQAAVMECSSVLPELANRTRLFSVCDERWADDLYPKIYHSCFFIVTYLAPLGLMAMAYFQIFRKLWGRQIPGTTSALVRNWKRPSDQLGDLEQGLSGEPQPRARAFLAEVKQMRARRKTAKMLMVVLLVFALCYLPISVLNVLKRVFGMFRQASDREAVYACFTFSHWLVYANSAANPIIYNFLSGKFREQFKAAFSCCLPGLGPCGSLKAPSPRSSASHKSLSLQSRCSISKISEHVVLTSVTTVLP

[9] = biological target: T3, Orexin/Hypocretin receptor type 1; experiment: as §1, with “Homogeneous Time Resolved Fluorescence (HTRF)-based” for “Fluorescence-based”; assay type: functional
CHO-K1 = experiment: (§2) Counterscreen for antagonists of the orexin 1 receptor (OX1R; HCRTR1): Homogeneous time resolved fluorescence (HTRF)-based cell-based dose response assay to identify antagonists of the parental CHO-K1 cell line. [Related pubchem assays (depositor defined):AID434989, AID435008, AID463079, AID485270, AID492963, AID492964, AID492965, AID493232, AID504699, AID504701]; assay type: functional; conditions: Cricetulus griseus
[10] = as §2, with “Fluorescence-based” for “Homogeneous time resolved fluorescence (HTRF)-based”, “cell-based high throughput” for “cell-based”, “CHO” for “CHO-K1”; assay type: functional
Orexin receptor type 2 [11] = biological target: T4, Orexin receptor type 2 (Homo sapiens, UniProt O43614); experiment: Counterscreen assay for antagonists of the orexin 1 receptor (OX1R; HCRTR1): Homogeneous Time Resolved Fluorescence (HTRF)-based cell-based dose response assay for antagonists of the orexin 2 receptor (OX2R; HCRTR2), run by assay provider.; assay type: functional
T4 sequence (O43614 whole entry): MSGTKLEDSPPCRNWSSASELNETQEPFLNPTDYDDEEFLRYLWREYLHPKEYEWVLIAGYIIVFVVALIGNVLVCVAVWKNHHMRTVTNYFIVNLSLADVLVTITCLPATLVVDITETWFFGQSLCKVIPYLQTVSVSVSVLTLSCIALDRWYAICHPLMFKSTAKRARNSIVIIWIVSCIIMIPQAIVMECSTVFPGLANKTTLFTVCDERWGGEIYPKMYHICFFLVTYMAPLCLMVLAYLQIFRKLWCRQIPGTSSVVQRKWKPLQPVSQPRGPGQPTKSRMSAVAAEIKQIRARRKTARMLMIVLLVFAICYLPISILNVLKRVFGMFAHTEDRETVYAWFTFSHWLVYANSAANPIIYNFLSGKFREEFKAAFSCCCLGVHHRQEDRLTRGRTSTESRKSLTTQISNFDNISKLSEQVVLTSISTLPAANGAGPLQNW

Orexin receptor type 2 [12] = biological target: T4, Orexin receptor type 2; experiment: Counterscreen assay for antagonists of the orexin 1 receptor (OX1R; HCRTR1): Fluorescence-based cell-based dose response assay for antagonists of the orexin 2 receptor (OX2R; HCRTR2), run by assay provider.; assay type: functional
[13] = biological target: T2, Short transient receptor potential channel 4; experiment: calcium entry via TRPC4 opening agents – cell-based, HEK293 TRPC4/mu-opioid, Fluo-4 calcium, dose response (AID 434937); assay type: functional
[14] = biological target: 5-hydroxytryptamine receptor 5A (Homo sapiens, UniProt P47898); experiment: Counterscreen for agonists of OPRM1-OPRD1 heterodimerization: luminescence-based cell-based high throughput dose response assay to identify agonists of 5-hydroxytryptamine (serotonin) 5A receptor (HTR5A). [Related pubchem assays (depositor defined):AID504326, AID504355, AID504692, AID504904, AID504905]; assay type: functional
Chain of 5-hydroxytryptamine receptor 5A (P47898 whole entry): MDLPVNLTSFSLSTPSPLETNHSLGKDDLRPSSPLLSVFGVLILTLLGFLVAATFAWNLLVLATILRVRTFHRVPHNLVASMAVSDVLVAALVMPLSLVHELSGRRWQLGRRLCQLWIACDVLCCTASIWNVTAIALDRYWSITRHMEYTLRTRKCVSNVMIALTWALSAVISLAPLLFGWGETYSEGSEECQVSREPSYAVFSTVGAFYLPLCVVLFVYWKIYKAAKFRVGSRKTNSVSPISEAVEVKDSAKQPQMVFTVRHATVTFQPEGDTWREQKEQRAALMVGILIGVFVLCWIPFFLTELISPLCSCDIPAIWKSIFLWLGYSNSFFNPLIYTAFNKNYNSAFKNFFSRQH

Mu-type opioid receptor = Mu-type opioid receptor (Homo sapiens, UniProt P35372); experiment: (§3) Counterscreen for agonists of heterodimerization of the mu 1 (OPRM1) and delta 1 (OPRD1) opioid receptors: Luminescence-based cell-based high throughput dose response assay to identify agonists of OPRM1 homodimerization.; assay type: functional
Chain of Mu-type opioid receptor (P35372 whole entry): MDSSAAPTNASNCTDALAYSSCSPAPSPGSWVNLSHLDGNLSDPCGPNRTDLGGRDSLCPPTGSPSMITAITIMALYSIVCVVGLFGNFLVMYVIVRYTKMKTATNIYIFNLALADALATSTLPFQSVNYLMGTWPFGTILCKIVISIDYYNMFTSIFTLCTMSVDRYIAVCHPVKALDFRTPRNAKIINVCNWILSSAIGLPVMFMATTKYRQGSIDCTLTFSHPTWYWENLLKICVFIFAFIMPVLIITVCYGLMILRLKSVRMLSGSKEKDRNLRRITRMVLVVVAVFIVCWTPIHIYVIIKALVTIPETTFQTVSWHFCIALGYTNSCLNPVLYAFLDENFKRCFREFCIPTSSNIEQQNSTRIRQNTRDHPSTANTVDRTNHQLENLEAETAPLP

[15] = biological target: Delta-type opioid receptor (Homo sapiens, UniProt P41143); experiment: as §3, with “of OPRD1” for “of OPRM1”, “homodimerization. [Related pubchem assays (depositor defined):AID504326, AID504355, AID504692, AID504904, AID504905]” for “homodimerization.”; assay type: functional
Chain of Delta-type opioid receptor (P41143 whole entry): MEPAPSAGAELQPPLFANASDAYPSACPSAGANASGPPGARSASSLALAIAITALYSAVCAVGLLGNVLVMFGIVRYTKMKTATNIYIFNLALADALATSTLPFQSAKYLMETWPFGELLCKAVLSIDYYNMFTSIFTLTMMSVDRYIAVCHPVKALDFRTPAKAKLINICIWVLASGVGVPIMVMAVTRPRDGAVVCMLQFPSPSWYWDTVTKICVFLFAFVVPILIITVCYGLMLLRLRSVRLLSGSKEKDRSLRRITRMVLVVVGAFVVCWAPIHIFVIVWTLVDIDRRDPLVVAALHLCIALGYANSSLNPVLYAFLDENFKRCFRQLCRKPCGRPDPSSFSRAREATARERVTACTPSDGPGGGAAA

[16] = NIH-3T3 fibroblast cytotoxicity, dose response, cytotoxicity control, cell-based, fluorescence, Alamar Blue, secondary assay (AID 2327); assay type: functional;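 also: NIH-3T3 mouse fibroblasts cultured with fluconazole at 8 µg/mL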
[17] = fluconazole-exposed Candida albicans growth modulators – fluorescence, retest, confirmation (AID 2467); assay type: functional, cell-based
[18] = biological target: T5, Probable nicotinate-nucleotide adenylyltransferase (Staphylococcus aureus (strain N315), UniProt P65502); assay type: functional, Staphylococcus aureus subsp. aureus N315;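 as to IC50 Mean: confirmatory dose-response retesting of NadD inhibitor hits first found in an ultra-high-throughput screen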
T5 sequence (P65502 whole entry): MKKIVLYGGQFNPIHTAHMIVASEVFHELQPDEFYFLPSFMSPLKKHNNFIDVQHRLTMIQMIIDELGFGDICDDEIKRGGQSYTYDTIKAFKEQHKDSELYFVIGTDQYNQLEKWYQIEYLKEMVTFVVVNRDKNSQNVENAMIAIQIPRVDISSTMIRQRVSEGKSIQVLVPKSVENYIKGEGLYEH

[19] = biological target: T5, Probable nicotinate-nucleotide adenylyltransferase; assay type: functional, Staphylococcus aureus subsp. aureus N315; conditions: read-out: IC50_Mean
[20] = microbe, parasite or virus in culture; assay type: functional; conditions: Mycobacterium tuberculosis
Vero [21] = experiment: cells; assay type: functional, cell-based; conditions: Chlorocebus sabaeus
cells = assay type: functional, cell-based; conditions: HEK-CNG
Paired box protein Pax-8 = Paired box protein Pax-8 (Homo sapiens, UniProt Q06710); experiment: PAX8 transcriptional activity inhibition in RMG-I – RMG-I cells, luciferase, cherry-pick, dose response (AID 687027); assay type: functional, cell-based;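 also: luciferase reporter driven by Pax8 target thyroperoxidase promoter measured by SteadyGlo luminescence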
Chain of Paired box protein Pax-8 (Q06710 whole entry): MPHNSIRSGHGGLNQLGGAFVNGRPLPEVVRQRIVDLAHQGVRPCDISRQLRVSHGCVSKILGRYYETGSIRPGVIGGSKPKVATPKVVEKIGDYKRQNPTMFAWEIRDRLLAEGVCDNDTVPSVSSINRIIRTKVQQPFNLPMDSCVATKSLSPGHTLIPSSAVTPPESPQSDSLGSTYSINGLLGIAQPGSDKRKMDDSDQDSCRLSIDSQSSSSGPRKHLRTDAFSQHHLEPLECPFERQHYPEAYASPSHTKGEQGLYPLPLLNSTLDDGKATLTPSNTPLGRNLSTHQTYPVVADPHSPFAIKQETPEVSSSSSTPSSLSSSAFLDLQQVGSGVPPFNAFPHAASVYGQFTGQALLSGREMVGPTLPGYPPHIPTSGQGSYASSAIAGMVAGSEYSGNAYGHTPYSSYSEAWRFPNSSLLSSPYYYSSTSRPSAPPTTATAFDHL

Galanin receptor type 3 = biological target: T6, Galanin receptor type 3 (Homo sapiens, UniProt O60755); experiment: Fluorescence-based cell-based primary high throughput dose response assay to identify antagonists of the Galanin Receptor 3 (GalR3).; assay type: functional
T6 sequence (O60755 whole entry): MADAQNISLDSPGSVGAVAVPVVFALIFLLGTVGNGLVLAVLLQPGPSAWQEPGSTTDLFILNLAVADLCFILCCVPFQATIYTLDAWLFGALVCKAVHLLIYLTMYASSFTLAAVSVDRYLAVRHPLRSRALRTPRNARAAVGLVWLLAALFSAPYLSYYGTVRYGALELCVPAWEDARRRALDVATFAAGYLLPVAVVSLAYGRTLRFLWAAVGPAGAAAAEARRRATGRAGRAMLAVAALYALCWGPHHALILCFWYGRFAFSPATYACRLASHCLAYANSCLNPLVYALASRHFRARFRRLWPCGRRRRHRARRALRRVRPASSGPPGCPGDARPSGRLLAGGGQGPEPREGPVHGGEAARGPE

Vero [22] = experiment: cells; assay type: functional; conditions: Chlorocebus sabaeus

Chain of Genome polyprotein (P29990 2492-3391 limits assumed): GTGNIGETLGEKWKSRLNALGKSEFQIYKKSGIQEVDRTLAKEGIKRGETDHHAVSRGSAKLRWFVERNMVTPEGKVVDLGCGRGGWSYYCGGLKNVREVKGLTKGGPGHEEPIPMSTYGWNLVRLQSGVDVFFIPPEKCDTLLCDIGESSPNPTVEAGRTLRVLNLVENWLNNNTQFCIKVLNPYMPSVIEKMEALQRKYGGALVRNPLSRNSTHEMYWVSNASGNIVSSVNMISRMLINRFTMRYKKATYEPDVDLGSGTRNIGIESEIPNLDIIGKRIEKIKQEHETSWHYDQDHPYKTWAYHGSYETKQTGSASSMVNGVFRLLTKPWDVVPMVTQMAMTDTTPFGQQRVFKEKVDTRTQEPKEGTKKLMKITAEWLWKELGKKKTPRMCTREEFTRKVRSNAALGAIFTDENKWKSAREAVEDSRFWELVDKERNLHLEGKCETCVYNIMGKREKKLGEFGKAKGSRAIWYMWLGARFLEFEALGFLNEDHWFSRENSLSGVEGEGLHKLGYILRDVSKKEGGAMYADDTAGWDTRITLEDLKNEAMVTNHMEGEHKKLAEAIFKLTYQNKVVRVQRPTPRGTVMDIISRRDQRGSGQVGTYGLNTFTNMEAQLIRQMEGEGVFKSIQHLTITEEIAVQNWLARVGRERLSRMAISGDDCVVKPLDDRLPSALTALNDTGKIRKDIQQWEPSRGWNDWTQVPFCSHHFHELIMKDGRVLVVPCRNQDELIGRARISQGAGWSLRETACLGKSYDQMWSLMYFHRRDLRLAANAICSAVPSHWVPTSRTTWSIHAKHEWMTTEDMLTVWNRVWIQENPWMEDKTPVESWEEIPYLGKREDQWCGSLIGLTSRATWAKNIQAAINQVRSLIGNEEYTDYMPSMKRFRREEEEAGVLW

CCOC(=O)c1c(NC(=O)/C=C/C(=O)O)sc(C)c1-c1ccc(C(C)(C)C)cc1
IC50 (Genome polyprotein): 25.6 µM (active)
AC50 (INS1): 4.33 µM (active)
EC50 [1]: > 60 µM (not active)
CC50 (Vero [2]): 10.6 µM (active)
IC50 (Large T antigen): 20.8 µM (active)
EC50 [3]: 3.42 µM (active)
IC50 [4]: 17.4 µM (inactive)
EC50 [5]: 5.31 µM (active)
AC50 [6]: 32.8 µM (active)

Oc1ccc(NCc2cccc(OCc3ccccc3)c2)cc1
CC50 (Vero [2]): > 40 µM (active)
CC50 [7]: 36.2 µM (active)

CCOC(=O)c1ccc2[nH]c(C)c(C)c2c1
IC50 [8]: 20.2 µM (inactive)
IC50 [9]: 5.45 µM (active)
IC50 (CHO-K1): > 66.3 µM (inactive)
IC50 [10]: > 49.8 µM (inactive)
IC50 (Orexin receptor type 2 [11]): 13.5 µM (inactive)
IC50 (Orexin receptor type 2 [12]): 18.8 µM (inactive)

CCCC(=O)NC(C)C(c1cccs1)N1CCN(c2ccccc2)CC1 (stereo unspecified)
EC50 [13]: 0.267 µM (active)
EC50 [14]: > 92.5 µM (inactive)
EC50 (Mu-type opioid receptor): > 92.5 µM (inactive)
EC50 [15]: > 92.5 µM (inactive)

COc1ccc(C(CNC(=O)C(C)c2ccc3cc(OC)ccc3c2)N(C)C)cc1 (stereo unspecified)
EC50 [13]: 0.473 µM (active)
EC50 [14]: > 92.4 µM (inactive)
EC50 (Mu-type opioid receptor): > 92.4 µM (inactive)
EC50 [15]: > 92.4 µM (inactive)

O=C(Nc1nnc(-c2ccccc2)o1)c1cc(-c2cccs2)nc2ccccc12
EC50 [16]: > 150 µM (inconclusive)
IC50 [8]: 30.4 µM (inactive)
IC50 [9]: 6.15 µM (active)
IC50 (CHO-K1): > 66.2 µM (inactive)
IC50 [10]: 43.7 µM (inactive)
EC50 [17]: 1.15 µM (active)
IC50 (Orexin receptor type 2 [11]): > 50 µM (inactive)
IC50 [18]: 6.82 µM (active)
IC50 [19]: 19.5 µM (active)
IC50 (Orexin receptor type 2 [12]): 8.5 µM (active)
CC50 [20]: 38.7 µM (active)

C[C@]12CC[C@H]3[C@@H](CC[C@@]4(O)C[C@@H](O)CC[C@]34C=O)[C@]1(O)CC[C@@H]2C1=CC(=O)OC1
IC50 (Vero [21]): < 0.05 µM (active)
EC50 (cells): > 29.9 µM (inactive)
AC50 (Paired box protein Pax-8): 3.39 µM (active)
IC50 (Galanin receptor type 3): > 29.9 µM (inactive)
CC50 (Vero [22]): 1.65 µM (active)
